This is an account of results in publication PMC12751012, “Nanoscale Direct-to-Biology Optimization and Structural Insights into Selective S. aureus TrmD Inhibitors” (Journal of Medicinal Chemistry, 2025).

The target in one assay is T1, S. aureus TrmD (Staphylococcus aureus, UniProt Q2FZ43).
T1 construct: made in house; host or cells: E. coli BL21
T1 sequence (Q2FZ43 1-245): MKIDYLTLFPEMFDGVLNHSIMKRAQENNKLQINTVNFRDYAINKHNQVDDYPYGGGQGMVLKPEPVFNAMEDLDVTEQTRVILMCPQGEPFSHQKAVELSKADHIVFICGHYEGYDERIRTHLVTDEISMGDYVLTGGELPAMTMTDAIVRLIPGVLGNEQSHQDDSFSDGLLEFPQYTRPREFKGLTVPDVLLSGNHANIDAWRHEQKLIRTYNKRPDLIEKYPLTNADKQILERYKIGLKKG
The experiment in a line: Fluorescence polarization (FP) assay, tracer 4, S. aureus TrmD. Type of assay: binding. As to the method:
To enable the screening of hundreds of nanomole-scale synthesized compounds, the implementation of a high-throughput-capable RNA methyltransferase (MTase) assay is considered fundamental. […] In this assay format, a fluorescent, SAM-pocket binding tracer can be displaced by the compound under investigation, and the resulting change in fluorescence polarization defines the read-out of the inhibitor compound’s affinity (Figure A).
(§1) Fluorescence polarization (FP) assays were performed as follows. The assays for H. influenzae TrmD have been described previously. All assays were conducted in technical triplicate using black 96-well half area plates. For the FP assays, a tracer (20 nM Cy5TPD for E. coli and H. influenzae TrmD, 10 nM tracer 4 for S. aureus TrmD) was mixed with the respective enzyme (2 μM E. coli TrmD, 2 μM H. influenzae TrmD, 500 nM S. aureus TrmD) in buffer (E. coli and H. influenzae TrmD: 50 mM HEPES, 500 mM NaCl, 5% Glycerol, pH 7.5, S. aureus TrmD: 40 mM Tris HCl, 100 mM NaCl, 10 mM MgCl2, 5% Glycerol, pH 7.5). The compounds were added in varying concentrations for K D-value determination. […] The Z-factor for tracer 4 was determined by measuring 48 replicates of the free tracer (positive controls, PC) and 48 replicates of a mixture of enzyme and tracer (negative controls, NC). The Z-factor is defined in terms of the means (μ) and standard deviations (σ) of the positive and negative controls and calculated as Z = 1–(3*(σnc + σpc)/(μnc–μpc)). […] Polarization values (mP) were determined from polarization-specific parallel and orthogonal fluorescence intensities. K D-values were calculated in GraphPad Prism 8.0.1 using the four-parameter Hill equation: y(% tracer bound) = bottom + ([ligand]-slope) × (top–bottom)/([ligand]-slope + K Dslope).

A further assay addresses T2, human Trm5 (Homo sapiens, UniProt Q32P41).
T2 construct: a truncated construct of Trm5 (aa 66–475), with flexible termini omitted; made in house; host or cells: E. coli Rosetta2 (DE3)
T2 sequence (Q32P41 66-475): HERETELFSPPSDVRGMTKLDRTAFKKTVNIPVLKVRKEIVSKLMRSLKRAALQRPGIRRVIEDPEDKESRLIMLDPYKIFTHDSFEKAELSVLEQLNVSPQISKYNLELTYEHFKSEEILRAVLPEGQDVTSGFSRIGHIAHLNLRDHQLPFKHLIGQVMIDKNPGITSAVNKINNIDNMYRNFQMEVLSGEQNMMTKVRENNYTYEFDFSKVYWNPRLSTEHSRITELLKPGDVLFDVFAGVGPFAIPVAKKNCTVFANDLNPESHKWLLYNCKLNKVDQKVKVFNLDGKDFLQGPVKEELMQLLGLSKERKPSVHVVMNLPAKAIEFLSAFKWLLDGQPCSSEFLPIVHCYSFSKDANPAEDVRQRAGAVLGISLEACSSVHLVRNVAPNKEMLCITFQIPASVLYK
The experiment in a line: 3H-based MTase enzyme inhibition assay, Trm5. Format: biochemical. To be noted: 3H-based enzyme assay, screened at 30 μM. As to the method:
^3H-based inhibition assays for TrmD S. aureus were performed in 50 mM HEPES, 5 mM MgCl2, 80 mM NaCl, 0.005% Tween-20, 1 mM DTT, pH 7.5 buffer; and for Trm5 in 100 mM Tris-HCl, 0.1 mM EDTA, 6 mM MgCl2, 100 mM KCl, 2 mM DTT, pH 7.4. The reaction mixture contained for S. aureus TrmD: 1 μM synthetic tRNA^Leu (Genscript, see above) and 100 nM S. aureus TrmD; For human Trm5:10 μM synthetic tRNA^Leu and 1.5 μM Trm5. Compounds were screened for S. aureus TrmD at 1 μM and for Trm5 at 30 μM. The enzymatic reactions were started by the addition of SAM as a mixture of ^3H-SAM (Hartmann Analytics, S. aureus TrmD: 0.5 μM, Trm5: 2 μM) and cold SAM (New England Biolabs, S. aureus TrmD: 0.5 μM, Trm5: 98 μM) to a final activity of 0.04 μCi μL^–1 (TrmD) or 0.16 μCi μL^–1 (Trm5). The reaction mixtures were incubated in duplicate for 60 min (TrmD)/30 min (Trm5) at 37 °C. As a negative control, the reaction mixture without the enzyme was used, and as a positive control, the reaction mixture without the test compound was used. After the enzyme incubation time, aliquots of 8 μL were taken from the reaction mixture and spotted on Whatman glass microfiber filters (GF/C, 25 mm). The tRNA was precipitated on the filters with 5% ice-cold TCA for 15 min. The filters were washed twice with 5% TCA at room temperature for 20 and 10 min, and once in EtOH for 10 min. After drying, the filters were transferred into scintillation vials with 3 mL of PerkinElmer Gold MV liquid scintillation cocktail. Scintillation was measured with a scintillation counter (TriCarb Liquid Scintillation Analyzer 4810TR; measurement time of 1 min).

The subject of another assay is S. aureus RN4220. The experiment in a line: Bacterial growth inhibition assay, S. aureus RN4220. Format: cell-based, Staphylococcus aureus. To be noted: for effect on S. aureus RN4220 growth: 1, 10 and 100 μM, 24 h growth curves; for MIC: Staphylococcus aureus, read-out: MIC S. aureus. Here is the method: (§2) Compounds were dissolved in DMSO to a final concentration of 20 mM. To determine the compound’s activity against different bacteria, a bacterial culture (E. coli ATCC10536, S. aureus RN4220) was set up to an optical density at 600 nm (OD600) of 0.05 from an overnight culture in Mueller-Hinton broth (Carl Roth). The compound was added in different concentrations ranging from […] to 1 μM. DMSO concentration was constantly adjusted to be 1% in the final culture. Cultures of 200 μL were incubated for 24 h at 37 °C in flat-bottom 96-well polystyrene culture plates (Greiner) using a BioTek Synergy H1 plate reader. Plates were incubated under constant shaking, and absorbance at 600 nm was measured every 20 min. The experiment was performed in three biological replicates with three technical replicates each.

Another assay relates to E. coli ATCC10536. Kind of assay: Bacterial growth inhibition assay, E. coli ATCC10536. To be noted: for effect on E. coli growth: up to 100 μM, growth curves. Format: cell-based, Escherichia coli. As to the method: as §2
For another assay, the target named is T3, H. influenzae TrmD (Haemophilus influenzae, UniProt P43912).
T3 construct: host or cells: E. coli BL21
T3 sequence (P43912 whole entry): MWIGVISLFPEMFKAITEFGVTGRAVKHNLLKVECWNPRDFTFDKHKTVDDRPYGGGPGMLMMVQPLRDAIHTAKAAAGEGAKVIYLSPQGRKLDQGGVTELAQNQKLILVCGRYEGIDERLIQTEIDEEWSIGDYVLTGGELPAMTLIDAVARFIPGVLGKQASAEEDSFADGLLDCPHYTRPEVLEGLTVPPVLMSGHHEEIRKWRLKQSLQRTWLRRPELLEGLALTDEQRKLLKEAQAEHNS
Kind of assay: Fluorescence polarization (FP) assay, tracer 3 (Cy5TPD), H. influenzae TrmD. Type of assay: binding. Here is the method: as §1

Where [1] appears, read: apparent affinity, purified compound, 500 nM TrmD, 10 nM tracer 4, read-out: KD S. aureus TrmD (FP displacement assay).
Where [2] appears, read: read-out: KD H. influenzae TrmD (FP).

“Also recorded” adds a separate entry of the source. Where two headings read alike, the source gives them in different places. Some results are limits rather than exact numbers.

As for `O=C(/N=C(\NCCn1cc(-c2c[nH]c3nc[nH]c(=O)c23)nn1)NC(=O)OCc1ccccc1)OCc1ccccc1` [Compound 8f], at S. aureus TrmD (setting [1]), the Kd was above 100 µM. Besides, the “S. aureus TrmD binding (FP)” value at S. aureus TrmD (up to 100 μM) is “no S. aureus TrmD binding”. For the same compound, the IC50 against human Trm5 was above 30 µM. Also, in the assay with S. aureus RN4220, the “effect on S. aureus RN4220 growth” value is given as “significant reduction in S. aureus growth; also recorded: significant effect on S. aureus bacteria in lower concentrations”. Besides, the MIC in the assay on S. aureus RN4220 (RN4220, 24 h (1440 min)) is 12.5 µM. The “E. coli growth rate” value in the assay with E. coli ATCC10536 (highest concentration (100 μM)) is on record as “slight increase”. In addition, the “effect on E. coli growth” value in the assay on E. coli ATCC10536 is “no significant growth inhibition”.
For the compound `O=c1[nH]cnc2[nH]cc(-c3cn(CC4CCC5C(CC4)C5(F)F)nn3)c12` (stereo not drawn) [Compound 8c, 5-(1-((8,8-Difluorobicyclo[5.1.0]octan-4-yl)methyl)-1H-1,2,3-triazol-4-yl)-3,7-dihydro-4H-pyrrolo[2,3-d]pyrimidin-4-one], the values for the Kd at S. aureus TrmD (setting [1]) and at H. influenzae TrmD (setting [2]) were 1.05 ± 0.11 µM and above 30 µM, respectively. On human Trm5, this compound registered an IC50 above 30 µM. In the assay on S. aureus RN4220, the “effect on S. aureus RN4220 growth” value is “no pronounced effect on growth”. In the assay with S. aureus RN4220 (RN4220, 24 h (1440 min)), the MIC is above 100 µM. Besides, in the assay with E. coli ATCC10536, the “effect on E. coli growth” value was “no pronounced effect on growth”.
Consider `N#Cc1cccc(Cn2cc(-c3c[nH]c4nc[nH]c(=O)c34)nn2)c1` [Compound 8b, 3-((4-(4-Oxo-4,7-dihydro-3H-pyrrolo[2,3-d]pyrimidin-5-yl)-1H-1,2,3-triazol-1-yl)methyl)benzonitrile], for which the Kd on S. aureus TrmD (setting [1]) is 1.82 ± 0.13 µM; at H. influenzae TrmD (setting [2]) it was above 30 µM. Besides, at human Trm5, the IC50 is above 30 µM. Also, the “effect on S. aureus RN4220 growth” value with S. aureus RN4220 is on record as “no pronounced effect on growth”. The minimum inhibitory concentration (MIC) in the assay on S. aureus RN4220 (RN4220, 24 h) is above 100 µM. The “effect on E. coli growth” value in the assay with E. coli ATCC10536 is “no pronounced effect on growth”.
As to `CC(C)(C)OC(=O)/N=C(\NCCn1cc(-c2c[nH]c3nc[nH]c(=O)c23)nn1)NC(=O)OC(C)(C)C` [Compound 8g], the Kd on S. aureus TrmD (setting [1]) came out at 19.8 µM. Further, the IC50 at human Trm5 is above 30 µM. Further, the minimum inhibitory concentration (MIC) in the assay on S. aureus RN4220 (RN4220, 24 h (1440 min)) was above 100 µM. The “effect on E. coli growth” value with E. coli ATCC10536 is listed as “no significant growth inhibition”.
As for `N[C@@H]1CCC[C@@H]1Cn1cc(-c2c[nH]c3nc[nH]c(=O)c23)nn1` [Compound 8e, 5-(1-(((1R,2R)-2-Aminocyclopentyl)methyl)-1H-1,2,3-triazol-4-yl)-3,7-dihydro-4H-pyrrolo[2,3-d]pyrimidin-4-one], the Kd on S. aureus TrmD (setting [1]) was 1.62 ± 0.24 µM; on H. influenzae TrmD (setting [2]) it was above 30 µM. Moreover, on human Trm5, the IC50 was above 30 µM. Further, the “effect on S. aureus RN4220 growth” value with S. aureus RN4220 is on record as “no pronounced effect on growth”. For the same compound, in the assay with S. aureus RN4220 (RN4220, 24 h (1440 min)), the MIC is above 100 µM. The “effect on E. coli growth” value in the assay with E. coli ATCC10536 was “no pronounced effect on growth”.
As for `NC(N)=NCCn1cc(-c2c[nH]c3nc[nH]c(=O)c23)nn1` [Compound 8h], the Kd at S. aureus TrmD (KD S. aureus TrmD (FP displacement assay), apparent affinity, purified compound, 500 nM TrmD, 10 nM tracer 4) was 2.48 ± 0.21 µM; on H. influenzae TrmD (KD H. influenzae TrmD (FP)), above 30 µM. This compound came in with a concentration for half-maximal inhibition (IC50) on human Trm5 above 30 µM.
Regarding `O=c1[nH]cnc2[nH]cc(-c3cn(Cc4ccc5ncccc5c4)nn3)c12` [Compound 8d, 5-(1-(Quinolin-6-ylmethyl)-1H-1,2,3-triazol-4-yl)-3,7-dihydro-4H-pyrrolo[2,3-d]pyrimidin-4-one], the Kd on S. aureus TrmD (setting [1]) was 0.72 ± 0.07 µM; at S. aureus TrmD (chromatographically purified compound, read-out: KD S. aureus TrmD (FP displacement assay)), 0.725 ± 0.075 µM; on H. influenzae TrmD (setting [2]) it was above 30 µM. For the same compound, the IC50 against human Trm5 was above 30 µM. Also, the “effect on S. aureus RN4220 growth” value with S. aureus RN4220 was “no pronounced effect on growth”. Moreover, the MIC in the assay on S. aureus RN4220 (RN4220, 24 h (1440 min)) was above 100 µM. The “effect on E. coli growth” value in the assay with E. coli ATCC10536 was “no pronounced effect on growth”.
